Entries after “also recorded” stand apart in the source; their conditions may differ.
Test system: Reticulitermes tibialis
Experiment: T-tube choice-test behavioral bioassay with CO2
Type: in vivo
Procedure: Behavioral bioassay apparatus: The choice-test bioassay apparatus was constructed from a glass T-tube (5 mm inside diameter, 5 mm stem, with each branch 4.5 cm long). Each branch of the ‘T’ was bent downward (2.5 cm from the junction of the ‘T’) at a 45° angle to form a pitfall trap. A 5 mm NMR cap (cat. no. 100-0050, Drummond Scientific, Broomall, Pa.) with a 1 mm pinhole in it was firmly pushed over the end of each bent branch. A 25 cm length of Teflon tubing (0.8 mm inside diameter) was inserted 3 mm into the hole in each NMR cap and the other end of the tubing was connected to a 35 ml polyethylene syringe (cat. no. 106-0490, Sherwood Medical, St. Louis, Mo.). The two 35-ml syringes were connected to a syringe pump which was adjusted to provide an airflow of 1 ml per min into each choice arm of the bioassay apparatus.
Mixtures of CO2 and ambient air were tested to determine the termite response to a range of CO2 concentrations. […] The CO2 concentration of the syringes was determined by using GC-MS-SIM analysis (see below) before each bioassay. […]
Procedure: For bioassays, termite workers were collected from plastic tubs by using a camel's hair brush and were placed into a holding container constructed from a 3 cm length of Teflon tubing (8 mm inside diameter). […] Bioassays were conducted for 15 min, after which the number of termites in each pitfall was recorded. […]

O=C=O [CO2, carbon dioxide]
termite choice, CO2 side versus ambient air control side (5 mmol/mol CO2 versus ambient air, 15 min): significantly greater than the number that moved to the control side; also recorded: chose the mmol/mol CO2 side significantly more often; also recorded: Significantly more termites (p<0.05) were attracted to the side containing 5 mmol/mol CO2 than to the control side
CO2 concentration of best attraction (in vivo): 5 mmol per mol

From patent US20050063956A1, “Method and device for attracting insects” (Colorado State University Research Foundation, priority 1998, published 2005)
